Experimental data as given in PubChem BioAssay AID1996.
Converted amounts (≈) assume the structure as drawn.

Settings: buffer; pH 7.4; 200.0 µM

Compound | solubility kinetic
COc1cccc(/C=C/C(=O)OCC(=O)NCCC2=CCCCC2)c1OC | 0.0069 mg/mL (≈ 18.5 µM)
CC(C)(C)NCC(O)c1cc(O)cc(O)c1.O=S(=O)(O)O (stereo not given) | > 0.0411 mg/mL
COc1cccc(N(CC(=O)N2CCOCC2)S(C)(=O)=O)c1 | > 0.0493 mg/mL
CCOC(=O)c1cc([N+](=O)[O-])sc1N | 0.0046 mg/mL (≈ 21.3 µM)
CCc1c(C)sc(NC(=O)c2ccco2)c1C#N | 0.017 mg/mL (≈ 65.3 µM)
Clc1ccc(CN2CCCCCC2)cc1.O=C(O)C(=O)O | 0.0249 mg/mL
COc1ccc(CNc2ncnc3sccc23)cc1OC | 0.0202 mg/mL (≈ 67 µM)
NCCCn1cnc2ccccc21 | > 0.0263 mg/mL
CCC(CO)NCC(O)COCc1ccc2c(c1)OCO2 (stereo not given) | > 0.0446 mg/mL
COc1cc(C(=O)O)nc(OC)n1 | > 0.0276 mg/mL
CCCC(=O)Nc1nnc(SCC(=O)NC2CC2)s1 | > 0.0451 mg/mL
CCc1cc2c(SC(C)C(=O)NC3CCCC3)ncnc2s1 (stereo not given) | 0.0344 mg/mL (≈ 103 µM)
S=C1SCN(Cc2ccco2)CN1Cc1ccco1 | > 0.0442 mg/mL
CCc1ccc2oc(C(=O)Nc3nonc3C)c(C)c2c1 | < 0.0002 mg/mL
NC(=O)c1cc(S(=O)(=O)N2CCOCC2)cs1 | > 0.0414 mg/mL
CCCNc1nc(Cl)nc(NCc2cccnc2)n1 | 0.0335 mg/mL (≈ 120 µM)
Cc1ccc(CCC(=O)Nc2ccc(N(C)C)cc2)o1 | 0.0175 mg/mL (≈ 64.3 µM)
CC(=O)N(C1=NCCCS1)c1ccccc1Cl | > 0.0403 mg/mL
CC1(c2ccc(OC(F)F)cc2)NC(=O)N(CC(=O)NC2CCCC2)C1=O (stereo not given) | > 0.0572 mg/mL
COc1ccc(C(=O)N2CC3(C)C4CCC3(C)C2(C#N)C4)cc1OC (stereo not given) | 0.045 mg/mL (≈ 132 µM)
CCOc1cc(C(N)=O)cc(Cl)c1OCC | 0.0346 mg/mL (≈ 142 µM)
CC1CCCN(C2(O)C(=O)Nc3ccc(Br)cc32)C1 (stereo not given) | > 0.0488 mg/mL
N#CCSc1ccc(S(=O)(=O)N2CCOCC2)cn1 | > 0.0449 mg/mL
O=C(CCN1C(=O)C2C3C=CC(C3)C2C1=O)NC1CCCCC1 (stereo not given) | > 0.0475 mg/mL
CCC(C)N(C)C1CCN(C(=S)Nc2cccc(SC)c2)CC1 (stereo not given) | > 0.0527 mg/mL

Compound | solubility kinetic
O=C1C(Cc2ccc(O)cc2)NC(=S)N1C1CCCCC1 (stereo not given) | 0.0449 mg/mL (≈ 147 µM)
O=S(=O)(c1cc(F)ccc1F)N1CCN(c2ncccn2)CC1 | 0.0469 mg/mL (≈ 138 µM)
C=CCNC(=O)NC(=O)CSc1nnc(C(F)(F)F)n1C | > 0.0485 mg/mL
CC(=O)Nc1ccc(/C=N/N2C(C)CCCC2C)cc1 (stereo not given) | > 0.041 mg/mL
COc1ccc(N/N=C(\C#N)C(=N)N2CCOCC2)cc1 | > 0.0431 mg/mL
COc1ccc(CNC(=O)COC(=O)c2ccc(S(=O)(=O)NCc3ccco3)cc2)cc1 | 0.008 mg/mL (≈ 17.4 µM)
CN(C(=O)c1ccncc1)C1CCCCC1 | > 0.0327 mg/mL
CCSc1nnc(NC(=O)C2CSC3(C)CCC(=O)N23)s1 (stereo not given) | > 0.0517 mg/mL
COc1ccc(OC)c(NC(=O)CSc2nc(O)cc(=O)n2CC(C)C)c1 | > 0.059 mg/mL
CCN(CC)CCn1c(C)nc2ccccc21.Cl | 0.0406 mg/mL
CC(C)S(=O)(=O)c1csc(NC(=O)Nc2ccc(Cl)cc2)c1Cl | < 0.0004 mg/mL
CC(NC1=NCCS1)c1ccccc1 (stereo not given) | 0.0304 mg/mL (≈ 147 µM)
CC(NC(=O)C1CCC(C)(C(=O)O)C1(C)C)c1ccccc1 (stereo not given) | > 0.0455 mg/mL
CSc1ncc(CN2CCN(CCC(C)C)C(CCO)C2)cn1 (stereo not given) | 0.0417 mg/mL (≈ 123 µM)
CC1CCCN(Cc2ccc(OCc3ccccc3)cc2)C1 (stereo not given) | 0.0315 mg/mL (≈ 107 µM)
COc1ccccc1C(=O)NCCC(=O)N1CCCC(C(F)(F)F)C1 (stereo not given) | 0.0523 mg/mL (≈ 146 µM)
S=C(NC1CCCCC1)N1CCN(c2ncccn2)CC1 | 0.0096 mg/mL (≈ 31.4 µM)
CCc1ccc(S(=O)(=O)NCc2cccnc2)cc1 | 0.0318 mg/mL (≈ 115 µM)
CCOC(=O)c1c(NC(=O)CNC2CCCCC2)sc(C)c1C | < 0.0004 mg/mL
COc1ccccc1N1C(=O)C2C3C=CC(CC3)C2C1=O (stereo not given) | 0.0307 mg/mL (≈ 108 µM)
CC(C)(C)C(=O)Nc1cccc(-c2ncon2)c1 | > 0.0368 mg/mL
O=C(c1ccco1)N1CCN(C(=O)N2CCCC2)CC1 | 0.0387 mg/mL (≈ 140 µM)
FC(F)(F)c1ccnc(NCc2ccco2)n1 | 0.0092 mg/mL (≈ 37.8 µM)
Cc1ccc(OCCNC(=O)c2ccc(C)cc2)cc1 | 0.0038 mg/mL (≈ 14.1 µM)

Other lines, results leading:

solubility kinetic | Compound
0.0136 mg/mL (≈ 38.6 µM) | CC(C(=O)Nc1ccc(F)c(F)c1F)N(C)CCOc1ccccc1 (stereo not given)
0.0129 mg/mL (≈ 38.1 µM) | O=[N+]([O-])c1ccc(O)c(C(C#Cc2ccccc2)N2CCOCC2)c1 (stereo not given)
> 0.0451 mg/mL | CC(C)(C)C(=O)CN1C(=O)NC2(CCc3ccccc32)C1=O (stereo not given)
0.0423 mg/mL | COc1ccc(Cc2nc3ccccc3n2C)cc1.Cl
< 0.0004 mg/mL | CCn1c(=O)c(C(=O)NCCCc2ccccc2)c(O)c2ccccc21
0.0146 mg/mL (≈ 40.1 µM) | COc1ccccc1CNC(=O)COC(=O)c1cc(C)nc2ccccc12
> 0.0416 mg/mL | O=C(c1ccccc1)c1ccccc1N1C(=O)C=CC1=O
0.0371 mg/mL (≈ 131 µM) | NC(=O)c1cccnc1Oc1ccc(Cl)cc1Cl
0.0015 mg/mL (≈ 4.99 µM) | Cc1ccc(O)c(Nc2c3ccccc3nc3ccccc23)c1
> 0.0505 mg/mL | CN(C)C(CNC(=O)c1coc2ccccc2c1=O)c1ccccc1 (stereo not given)
> 0.0405 mg/mL | O=C1CCC([N+](=O)[O-])C(c2cccc3ccccc23)N1 (stereo not given)
0.0046 mg/mL | COCCNc1nc(-c2ccccc2)nc2c1oc1ccccc12.Cl
0.0018 mg/mL (≈ 5.76 µM) | Cc1cccc(OCC(=O)Nc2ccc3nc(C)sc3c2)c1
0.0449 mg/mL (≈ 143 µM) | O=C1c2ccccc2C(=O)N1c1ccc(Cc2ccncc2)cc1
0.005 mg/mL (≈ 16.8 µM) | Cc1ccc(NC(=O)CO/N=C(\N)c2ccccc2)cc1C
0.0016 mg/mL (≈ 5.09 µM) | COc1ccccc1CNC(=O)c1cc(C(=O)CC(C)C)c[nH]1
0.0097 mg/mL (≈ 34.1 µM) | CN(C(=O)c1cc(-c2ccccc2)on1)C1CCCCC1
< 0.0001 mg/mL | CC(C)CNc1nc(N)c([N+](=O)[O-])c(NCc2ccccc2)n1
0.0265 mg/mL (≈ 113 µM) | O=C(Nc1cccc(Cl)c1)c1cnccn1
0.0003 mg/mL (≈ 0.903 µM) | COc1ccccc1Nc1nc(NCC(C)C)nc(N)c1[N+](=O)[O-]
0.0064 mg/mL | O=C(C[n+]1ccncc1)c1ccccc1.[Br-]
> 0.0401 mg/mL | Cc1ccc(/C=N/n2c(C)nc3ccccc3c2=O)o1
> 0.0514 mg/mL | CCOn1c(=O)c(-c2cc(OC)ccc2OC)[n+]([O-])c2ccccc21
0.0404 mg/mL (≈ 117 µM) | NC(CCCCCP(=O)(c1ccccc1)c1ccccc1)C(=O)O (stereo not given)

solubility kinetic | Compound
> 0.0365 mg/mL | OCC(O)CN(c1ccccc1)c1ccccc1 (stereo not given)
< 0.0003 mg/mL | CCOc1ccc(NC(=O)c2ccc(CC)s2)c([N+](=O)[O-])c1
> 0.0428 mg/mL | O=C(CSc1nccc(=O)[nH]1)c1c[nH]c2ccccc12
0.0411 mg/mL (≈ 134 µM) | COc1cccc(CNC(=O)c2cc(C)nc3ccccc23)c1
0.0006 mg/mL (≈ 1.76 µM) | N#C/C(=C(/O)c1ccc(Cl)c([N+](=O)[O-])c1)c1nc2ccccc2[nH]1
0.0093 mg/mL (≈ 32.8 µM) | O=[N+]([O-])c1ccc2c(c1)nc(CO)n2Cc1ccccc1
0.011 mg/mL (≈ 23.1 µM) | COC(=O)c1ccc(COC(=O)C2CCN(S(=O)(=O)c3ccccc3C(=O)OC)CC2)cc1
0.0354 mg/mL (≈ 101 µM) | COC(=O)C1Cc2ccccc2CN1S(=O)(=O)c1ccc(F)cc1 (stereo not given)
> 0.0506 mg/mL | O=C1OC(c2ccc3c(c2)OCO3)=N/C1=C\c1ccc(C(=O)O)cc1
0.0633 mg/mL (≈ 145 µM) | O=C(COC(=O)c1cccc(Cl)c1)Nc1cccc(S(=O)(=O)NC2=NCCC2)c1
> 0.0404 mg/mL | CC1=NN(c2nc3ccccc3[nH]2)C(=O)/C1=C/N(C)C
> 0.0509 mg/mL | CC/C(O)=C1\C(=O)CC(C)(C)CC1=NCCc1nc2ccccc2[nH]1
0.0011 mg/mL (≈ 3.27 µM) | CCOC(=O)c1csc(NC(=O)CCSc2ccccc2)n1
0.0009 mg/mL (≈ 2.97 µM) | CC(NC(=O)NC(=O)c1cccc(Cl)c1)c1ccccc1 (stereo not given)
0.0356 mg/mL (≈ 125 µM) | O=S(=O)(Nc1ccccc1O)c1ccc(Cl)nc1
> 0.0525 mg/mL | CN(CC(O)COc1ccc2ccccc2c1)C1CCCCC1.Cl (stereo not given)
0.0497 mg/mL (≈ 144 µM) | Cc1cc(=O)[nH]c2c(C)cc(S(=O)(=O)Nc3ccc(O)cc3)cc12
0.0065 mg/mL (≈ 20.8 µM) | O=C(CN1C(=O)c2ccccc2C1=O)NCc1ccc(F)cc1
0.0063 mg/mL (≈ 17.3 µM) | COc1cc(SC)ccc1C(=O)N(Cc1ccccc1)c1ccccc1
0.0032 mg/mL (≈ 10.7 µM) | Cc1ccc2cc(/C=C/C(=O)c3ccco3)c(Cl)nc2c1
> 0.0399 mg/mL | O=C(Nc1ccc(Br)cc1)c1cnc[nH]1
< 0.0002 mg/mL | Cc1cccc(NC(=O)Nc2ccc(Br)cc2)n1
> 0.0505 mg/mL | O=C(COC(=O)c1ccc(Cl)nc1)NCCc1ccc(F)cc1
0.013 mg/mL (≈ 39.6 µM) | CN(c1ccccc1)c1nc(N)c([N+](=O)[O-])c(N2CCCCC2)n1

solubility kinetic | Compound
0.0443 mg/mL (≈ 143 µM) | CN(Cc1cccc(F)c1)C(=O)c1cc(=O)[nH]c2ccccc12
0.0013 mg/mL (≈ 3.73 µM) | O=[N+]([O-])c1cccc(S(=O)(=O)N2CCN(c3ccccn3)CC2)c1
0.0088 mg/mL (≈ 17.7 µM) | CC1CCCN(S(=O)(=O)c2cccc(C(=O)OCC(=O)N(C)Cc3c(F)cccc3Cl)c2)C1 (stereo not given)
0.0338 mg/mL (≈ 145 µM) | CC(=O)N1CCCC1(C(=O)O)c1ccccc1 (stereo not given)
0.0079 mg/mL (≈ 20.3 µM) | CC(OC(=O)c1ccccn1)C(=O)Nc1nc(-c2ccc(F)c(F)c2)cs1 (stereo not given)
> 0.0557 mg/mL | N#Cc1c(-c2ccccc2)nc(N2CCN(Cc3ccccc3)CC2)[nH]c1=O
> 0.0462 mg/mL | Oc1ccc(Cl)cc1C=Nc1ccc2c3c(cccc13)CC2
0.035 mg/mL (≈ 115 µM) | O=C(NC(Cc1ccccc1)C(=O)O)c1cccnc1Cl (stereo not given)
0.023 mg/mL (≈ 59.2 µM) | CCN(c1ccccc1)S(=O)(=O)c1ccc(OC)c(NC(=O)C2CCC2)c1
< 0.0003 mg/mL | CSc1nccc(-c2sc(SC)c(C#N)c2-c2ccccc2)n1
0.0384 mg/mL (≈ 116 µM) | COCCNc1c(-c2ccc(OC)cc2)nc2ccc(Cl)cn12
0.0043 mg/mL (≈ 15.6 µM) | CCOC(=O)CCSc1cc(C)c2ccccc2n1
0.0082 mg/mL (≈ 24.5 µM) | Nc1nc(Nc2ccccc2F)nc(N2CCOCC2)c1[N+](=O)[O-]
> 0.0366 mg/mL | COc1ccccc1NC(=O)c1ccc[n+]([O-])c1
0.0212 mg/mL (≈ 69.9 µM) | O=S(=O)(Nc1ccncc1)c1cc(Cl)ccc1Cl
> 0.0395 mg/mL | Nc1cccc(C(=O)Nc2cccc3ncccc23)c1
> 0.0643 mg/mL | COc1cc(CCC(=O)OCC(=O)N2CC(=O)Nc3ccccc32)cc(OC)c1OC
0.0331 mg/mL (≈ 113 µM) | O=Cc1ccnc(-c2ccc(OC(=O)c3ccco3)cc2)n1
0.0125 mg/mL (≈ 40 µM) | Cc1nc2c(Cl)cccc2c2c1CC(CBr)O2 (stereo not given)
0.0387 mg/mL (≈ 128 µM) | O=C(COc1ccccc1Cl)N1CCc2ccccc2C1
0.0371 mg/mL (≈ 134 µM) | Cc1cccc(NC(=O)c2ccc3nccnc3c2)c1C
> 0.0491 mg/mL | Cc1ccc(Br)cc1S(=O)(=O)Nc1cccnc1
0.0496 mg/mL (≈ 144 µM) | COC(=O)COc1cccc(NC(=O)c2cc(OC)cc(OC)c2)c1
